Publication PMC3039689, “Identification of Small Molecule Lead Compounds for Visceral Leishmaniasis Using a Novel Ex Vivo Splenic Explant Model System” (PLoS Neglected Tropical Diseases, 2011)
Counter-ions that a name gives are not always drawn. Like-named read-outs stand apart in the source and are kept apart here.

Columns and labels:
[1] = biological target: luciferase-transfected Leishmania donovani; experiment: Anti-leishmanial efficacy (EC50) in the ex vivo splenic explant model; assay type: cell-based
Description: To establish the plate assay for drug screening, the spleens from 2 infected hamsters were aseptically removed and placed in a Petri dish containing 5 mL of Collagenase D (Roche) at 2 mg/mL of buffer (10 mM Hepes pH 7.4, 150 mM NaCl, 5 mM KCl, 1 mM MgCl2, 1.8 mM CaCl2). The spleen was infiltrated by injection with approximately 2 mL of Collagenase solution, the tissue was cut into small pieces using sharp scissors, and incubated for 20 minutes at 37°C. The cell suspension and remaining tissue fragments were gently passed through a 100 µm cell strainer (B–D) to obtain a single cell suspension, which was washed twice by centrifugation (500 g for 7 min at 4°C) and re-suspended in culture medium composed of DMEM (Gibco), 5% FBS, 1 mM Sodium pyruvate (Gibco), 1X MEM amino acids solution (Sigma), 0.02% v/v/EDTA, 10 mM HEPES buffer (Cellgro) and 100 IU/mL Penicillin/100 […] Streptomycin solution (Cellgro).
The anti-leishmanial efficacy of the compounds was determined using the splenic explant model in a 96-well plate format. […] Because variation in the parasite burden between different explant cultures was expected, the concentration of cells used in each experiment was adjusted to give approximately 100 counts by luminometry (equivalent to ∼240,000 parasites). The number of surviving parasites was determined by luminometry as described above.

[2] = test system: HepG2 cells; experiment: Cell toxicity (CC50) in the HepG2 cell line, CellTiter-Glo; assay type: cell-based, human
Description: (§1) After 24 hours of culture at 37°C the number of viable cells was determined by quantification of the ATP present in the cell using the CellTiter-Glo luminescent Cell Viability Assay (Promega).

[3] = as above; assay type: cell-based, human; details: human
Description: as §1

[4] = ex vivo splenic explant, 48 h, luminometry, at least two experiments, compound from screened library, read-out: Ex vivo model EC50 Mean
[5] = HepG2 cell line, 24 h, ATP luminescence, compound from screened library, read-out: HepG2 CC50 Mean
[6] = 50% reduction in parasite counts in the ex vivo model, read-out: EC50 Mean (Table S2)
[7] = Leishmania donovani, 48 h, ex vivo splenic explant, 48 h, luminometry, at least two experiments, compound from screened library, read-out: Ex vivo model EC50 Mean
[8] = Leishmania donovani, 50% reduction in parasite counts in the ex vivo model, read-out: EC50 Mean (Table S2)
[9] = Leishmania donovani, ex vivo splenic explant, 48 h, luminometry, at least two experiments, compound from screened library, read-out: Ex vivo model EC50 Mean
[10] = HepG2 cells, HepG2 cell line, 24 h, ATP luminescence, compound from screened library, read-out: HepG2 CC50 Mean

Compound	EC50 [1, 4] [µM]	CC50 [2, 5] [µM]	further results
7-(2-(6-Ethoxy-1-methyl-1.lambda.~5~-quinolin-2-yl)vinyl)-5-methyl-8-quinolinol; Quinolinium, {6-ethoxy-2-[2-(8-hydroxy-5-methyl-7-quinolyl)vinyl]-1-methyl-} iodide	5.7	46	
OC(c1cc(-c2ccc(Cl)cc2)nc2ccccc12)C1CCCCN1 (stereo not shown) [2-(4-chlorophenyl)quinolin-4-yl]-(2-piperidyl)methanol]	6.7	38.4	
c1ccc(-c2ccc(-c3ccc(C4=NCCN4)cc3)o2)cc1 [2-[4-(5-phenylfuran-2-yl)phenyl]-4,5-dihydro-1H-imidazole chloride]	7.5		CC50 [2]: 42.9 µM
CCC1=C(CC2NCCc3cc(OC)c(OC)cc32)CC2c3ccccc3CCN2C1 (stereo not shown) [2-[(6,7-dimethoxy-1,2,3,4-tetrahydroisoquinolin-1-yl)methyl]-3-ethyl-4,6,7,11b-tetrahydro-1H-pyrido[2,1-a]isoquinoline]	8.8	76.2	
OC(c1cc(-c2ccccc2)nc2c1ccc1ccccc12)C1CCCCN1 (stereo not shown) [2-phenylbenzo[h]quinolin-4-yl)(2-piperidinyl)me]	5	28.7	
CCN(CC)CC(O)c1ccc2ccc3ccccc3c2c1 (stereo not drawn) [3-Phenanthrenemethanol, α-[ (diethylamino)methyl]-, hydrochloride]	8.9	54.2	
O=[As](O)(O)c1ccc(Cc2ccc([As](=O)(O)O)cc2)cc1 [4-[(4-arsonophenyl)methyl]phenyl]arsonic acid]	6.9	34.5	
CCCCCCc1ccc(O)cc1O.Nc1c2ccccc2nc2ccccc12 [Acrisorcin]	8	50.9	
CC1=CC(C2/C(=N/O)C=C(C)CC2(C)C)C(O)C(C)(C)C1 (stereo not shown) [Cristox Oxime]	10.9	140	
CC(C)c1ccc2c(c1)CC[C@H]1[C@](C)(CN)CCC[C@]21C [Dehydroabietylamine]	5.8		CC50 [2]: 32.9 µM
CCN(CC)COC(=S)S [Diethylaminomethoxymethanedithioic acid]	3.7	83.7	
CC(C)=CC(=O)O[C@H]1[C@H]2[C@H](OC(=O)[C@H]2C)[C@H](O)[C@@H](C)[C@@H]2C=CC(=O)[C@]21C [Fastigilin B]	8.9	44.8	
CC[C@@H](C(=O)[C@@H](C)[C@@H](O)[C@H](C)CCc1ccc(C)c(O)c1C(=O)O)[C@H]1O[C@](CC)([C@H]2CC[C@](O)(CC)[C@H](C)O2)C[C@@H]1C [Lasalocid Sodium]	8.9	45.8	
c1ccc2c(c1)Sc1ccccc1N2CC1CN2CCC1CC2 (stereo not shown) [Mequitazine,10-(3-Quinuclidinylmethyl)phenothiazine]	8.5	50.3	
Cc1cc(C(C)(C)CC(C)(C)C)ccc1OCCOCC[N+](C)(C)Cc1ccccc1 [Methylbenzethonium Chloride]	7.1		EC50 [1, 6]: 7.06 µM; CC50 [2]: 53.2 µM
CO[C@@H]1C[C@@H](C[C@H]2CC[C@H](C)[C@H]([C@@H](C)C(=O)O)O2)O[C@]2(O[C@](C)([C@H]3CC[C@@](C)([C@@H]4O[C@@H]([C@H]5O[C@@](O)(CO)[C@H](C)C[C@@H]5C)C[C@@H]4C)O3)C[C@H]2C)[C@@H]1C [Nigericin, monosodium salt]			EC50 [1, 7]: 3.1 µM; EC50 [1, 8]: 3.13 µM; CC50 at 24 h [3]: 34.3 µM
C[C@@H]1C[C@H]2CC[C@H](O2)[C@H](C)C(=O)O[C@@H](C)C[C@@H]2CC[C@@H](O2)[C@@H](C)C(=O)O[C@H](C)C[C@H]2CC[C@H](O2)[C@H](C)C(=O)O[C@@H](C)C[C@@H]2CC[C@@H](O2)[C@@H](C)C(=O)O1 [Nonactin]			EC50 [1, 9]: 0.1 µM; CC50 [3]: 23.7 µM
CNCCC=C1c2ccccc2CCc2ccccc21 [Nortriptyline Hydrochloride]			EC50 [1, 7]: 7.8 µM; CC50 [3]: 52.6 µM
CCCCCCCCCCC[C@@H](C[C@@H]1OC(=O)[C@H]1CCCCCC)OC(=O)[C@H](CC(C)C)NC=O [Orlistat]			EC50 [1, 7]: 24.9 µM; CC50 at 24 h [3]: 161 µM

Compound	EC50 [1, 4] [µM]	CC50 [2, 5] [µM]	further results
N=C1C=CC(=C(c2ccc(N)cc2)c2ccc(N)cc2)C=C1 [Pararosaniline Pamoate]			EC50 [1, 9]: 2.7 µM; CC50 at 24 h [3]: 37.1 µM
C=C1C(=O)O[C@@H]2[C@H]1CC[C@H](C)[C@]1(O)C=CC(=O)[C@@]21C [Parthenicin]	8.7	64.5	
C=C1C(=O)O[C@H]2[C@H]1CC/C(C)=C/CC[C@@]1(C)O[C@@H]21 [Parthenolide]			EC50 [1, 7]: 13.3 µM; EC50 [1, 8]: 13.3 µM; CC50 at 24 h [3, 10]: 81.1 µM
C[C@]12C(=O)C=CCC1=CC[C@@H]1[C@@H]2CC[C@@]2(O)C(=O)O[C@@]3(C)[C@H]4C[C@]5(C)[C@@H](CO[C@@]16O[C@]23[C@H]5C6=O)C(=O)O4 [Physalin B]			EC50 [1, 8]: 8.59 µM; EC50 [1, 9]: 8.6 µM; CC50 at 24 h [3, 5]: 50.7 µM
CN(C)CCCNc1c2c(=O)n(C)c(=O)nc-2n(C)c2ccccc12 [Pyrimido[4,5-b]quinoline-2,4(3H,10H)-dione, 5-[[3-(dimethylamino)propyl]amino]-3,10-dimethyl-, monohydrochloride]			EC50 [1, 7]: 6.5 µM; CC50 at 24 h [3, 10]: 49.5 µM
C=C1C(=O)[C@]23[C@H](O)[C@H]1CC[C@H]2[C@@]12CO[C@]3(O)[C@@H](O)[C@@H]1C(C)(C)CC[C@@H]2O [Rubescensin A]	11		CC50 [2]: 69.1 µM
CC[C@@H](C(=O)[C@@H](C)[C@@H](O)[C@H](C)[C@@H]1O[C@@H]([C@@H](CC)C(=O)O)CC[C@@H]1C)[C@H]1O[C@]2(C=C[C@@H](O)[C@]3(CC[C@@](C)([C@H]4CC[C@](O)(CC)[C@H](C)O4)O3)O2)[C@H](C)C[C@@H]1C [Salinomycin, Sodium]	7.4	48.4	EC50 [1, 6]: 7.44 µM
O=C1C=C2C=C[C@@H]3C[C@@]2(O1)[C@H]1CCCCN31 [Securinine]			EC50 [1, 9]: 6.2 µM; CC50 [3, 5]: 47.7 µM
NCCCCNCCCN [Spermidine Trihydrochloride]			EC50 [1, 7]: 20 µM; CC50 at 24 h [3, 10]: 132 µM
CC1CC(C)(O)CC(C(O)CC2CC(=O)NC(=O)C2)C1=O (stereo not shown) [Streptovitacin A]	3.7	32.4	
CCCC(c1cc(C(C)(C)C)c(O)cc1C)c1cc(C(C)(C)C)c(O)cc1C [Sumilit BBM]	9.4	71.7	
COc1ccc2cc1Oc1ccc(cc1)C[C@H]1c3cc(c(OC)cc3CCN1C)Oc1c(OC)c(OC)cc3c1[C@H](C2)N(C)CC3 [Tetrandrine]			EC50 [1, 9]: 5.6 µM; CC50 at 24 h [3]: 31.4 µM
COc1ccc2c(=O)oc3c(OC)cc(CCN(C)C)c4c(=O)oc1c2c34 [Thaspine Acetate]	2.7	51.4	
CSc1ccc2c(c1)N(CCCN(C)C)c1ccccc1S2 [Thiomethylpromazine]	13	83.9	
O=c1c2ccccc2sc2c(CO)ccc(NCCN3CCCCC3)c12 [Thioxanthen-9-one, 4-(hydroxymethyl)-1-[(2-piperidinoethyl)amino]-; 9H-Thioxanthen-9-one, 4-(hydroxymethyl)-1-[[2-(1-piperidinyl)ethyl]amino]-]	9.1	56	
CC(C)[C@@H]1NC(=O)[C@H](C)OC(=O)[C@@H](C(C)C)NC(=O)[C@@H](C(C)C)OC(=O)[C@H](C(C)C)NC(=O)[C@H](C)OC(=O)[C@@H](C(C)C)NC(=O)[C@@H](C(C)C)OC(=O)[C@H](C(C)C)NC(=O)[C@H](C)OC(=O)[C@@H](C(C)C)NC(=O)[C@@H](C(C)C)OC1=O [Valinomycin]			EC50 [1, 9]: 0.02 µM; CC50 at 24 h [3, 5]: 10.7 µM
O=C1C=C2C=C[C@H]3C[C@]2(O1)[C@@H]1CCCCN13 [Virosecurinine]	8.8	121	
Benzalkonium Chloride	6.4	38.6	
